EPA's ToxValDB 9.5 (doi:10.2903/j.efsa.2011.2096)
≈ marks a conversion by molar mass, not a printed value.

Key:
Aphidius rhopalosiphi = assay: LR50; higher = less toxic; settings: not reported; mortality
Typhlodromus pyri = assay: LR50; higher = less toxic; settings: not reported; mortality
Pimephales promelas = settings: chronic/long-term; duration: 21 days
Apis mellifera = settings: acute; duration: 48 hours; oral; unspecified; mortality
Daphnia magna = settings: chronic/long-term; duration: 21 days; reproduction
Lepomis macrochirus = settings: acute; duration: 96 hours; mortality
Colinus virginianus = settings: mortality
Canidae = settings: chronic; duration: 1 years; oral; Dog Other; body weight
Oryctolagus sp. = settings: developmental; development
Plant = settings: chronic/long-term; seedling emergence
Anas platyrhynchos = settings: oral, mortality

With O=c1c2cc(F)ccc2nc(-n2cncn2)n1-c1ccc(Cl)cc1Cl [Fluquinconazole] the LR50 (Aphidius rhopalosiphi) was less than 149 g/ha, the LR50 (Typhlodromus pyri) was less than 149 g/ha and the LC50 (Tagia sp.; acute, duration: 14 days, mortality) was greater than 1000 mg/kg. For the same compound, the NOEC (Tagia sp.; chronic/long-term, duration: 56 days) was 0.5 mg/kg, the NOEC (Pimephales promelas) was 0.154 mg/L and the LD50 (Rattus norvegicus; acute, oral, mortality) was 112 mg/kg-day. For the same compound, the NOAEL (Rattus norvegicus; chronic, mortality) was 0.9 mg/kg-day, the NOAEL (Rattus norvegicus; developmental, development) was 2 mg/kg-day and the LD50 (Apis mellifera) was greater than 100 µg/piece. The NOEC (Daphnia magna) was 0.648 mg/L, the LC50 (Lepomis macrochirus) was 1.34 µg/mL (≈ 3.56 µM) and the LC50 (Colinus virginianus; acute, oral, diet) was 704 mg/kg-day. The LD50 (Colinus virginianus; acute, oral) was greater than 2000 mg/kg-day, the NOEC (Colinus virginianus; reproduction developmental) was 1.9 mg/kg-day and the NOAEL (Canidae) was 0.2 mg/kg-day. For the same compound, the NOAEL (Oryctolagus sp.) was 2 mg/kg-day, the NOEC (Plant) was greater than 1000 g/ha and the LD50 (Anas platyrhynchos; acute, unspecified) was greater than 2000 mg/kg-day. For the same compound, the LC50 (Anas platyrhynchos; short-term, feed) was greater than 210 mg/kg-day.
